Values after ≈ are worked out from the molar mass of the structure shown.
Assays:
Format in all cases: physicochemical
[1] = Crystal form after grinding, compression and wet granulation; conditions: compression and wet granulation (water and ethanol), listed as free form hydrate
[2] = Form after degradation at 160° C.
[3] = Dynamic Vapor Sorption (DVS) moisture absorption / hygroscopicity; conditions: for solid form after DVS: after DVS testing
[4] = Solid-state chemical stability: degradation products by UPLC/HPLC after stress storage; conditions: for DP % (Degradation Product), Bulk (UPLC): Solid state
Experimental: (§1) Compound I, Compound I fumaric acid co-crystals and amorphous Compound I fumaric acid samples (10 mg) were placed in an open vial at 50° C./75% RH and 80° C./75% RH chamber for one week. A same amount of sample was placed in a closed vial at 50° C. and 80° C. chamber for 1 week. The samples were exposed to 100 k Lux light for 12 h at 25° C. Solids were examined by XRPD for physical stability determination and by UPLC for chemical stability determination. The color of the samples was evaluated by visual observation. Table 5 compares the stability of Compound I and its various solid forms.

[5] = Solubility in various media at 25° C. after 24 hours equilibration (UPLC); conditions: for final pH of the sample (in parentheses): after 24 hours equilibration
[6] = Solid-state physical stability: form change by XRPD after stress storage; conditions: for Bulk (XRPD): Solid state
Experimental: as §1

[7] = Form after storage at 92% RH; conditions: 24 hrs
[8] = 50° C., 50° C./75& RH, 80° C. and 80° C./75% RH for one week
[9] = 1 week 50° C., closed container
[10] = 1 week 80° C., closed container

## Cc1nc(C)c(C(=O)Nc2ccc(F)c(-c3nc4ncc(-c5ncccc5C)cn4n3)c2)o1 [Free Form, N-(4-fluoro-3-(6-(3-methylpyridin-2-yl)-[1,2,4]triazolo[1,5-a]pyrimidin-2-yl)phenyl)-2,4-dimethyloxazole-5-carboxamide]
[1]
  crystal form after grinding, compression and wet granulation: converted to a different hydrate or a hydrate mixture
[2]
  form after degradation at 160° C.: converts to an amorphous form
[3]; listed as Compound I free form
  solid form after DVS: changes into a dihydrate
[3]; listed as free form hydrate
  solid form after DVS: form change that is likely a dihydrate
[3]; at 25° C., RH not stated
  moisture absorption by DVS: 8.9%
[3]; by DVS, listed as free form hydrate
  hygroscopicity: hygroscopic
[4]; [8]
  chemical stability in bulk: chemically stable
[4]; 1200 kLuxh light for 12 hrs
  stability upon exposure to light: stable
[4]; [9]
  DP % (Degradation Product), Bulk (UPLC): 0.6%
[4]; 1 week 50° C./75% r.h.
  DP % (Degradation Product), Bulk (UPLC): 0.6%
[4]; [10]
  DP % (Degradation Product), Bulk (UPLC): 0.6%
[4]; 1 week 80° C./75% r.h.
  DP % (Degradation Product), Bulk (UPLC): 0.6%
[4]; Xenon light (approx. 1200 kLuxh), amber vial
  DP % (Degradation Product), Amber vial (HPLC): 0.8%
[4]; Xenon light (approx. 1200 kLuxh), clear vial
  DP % (Degradation Product), Clear vial (HPLC): 0.6%
[5]; 0.01N HCl pH 2.0
  final pH of the sample (in parentheses): 2.10
[5]; 0.1N HCl pH 1.0, 25° C., 24 hours equilibration
  solubility: 232 µg/mL (≈ 523 µM)
[5]; 0.1N HCl pH 1.0
  final pH of the sample (in parentheses): 1.00
[5]; FaSSIF pH 6.5, 25° C., 24 hours equilibration
  solubility: 4 µg/mL (≈ 9.02 µM)
[5]; FaSSIF pH 6.5
  final pH of the sample (in parentheses): 6.31
[5]; FeSSIF pH 5.8, 25° C., 24 hours equilibration
  solubility: 6 µg/mL (≈ 13.5 µM)
[5]; FeSSIF pH 5.8
  final pH of the sample (in parentheses): 5.73
[5]; SGF pH 2.0, 25° C., 24 hours equilibration
  solubility: 29 µg/mL (≈ 65.4 µM)
[5]; SGF pH 2.0
  final pH of the sample (in parentheses): 1.99
[5]; acetate buffer pH 4.7, 25° C., 24 hours equilibration
  solubility: 2 µg/mL (≈ 4.51 µM)
[5]; acetate buffer pH 4.7
  final pH of the sample (in parentheses): 4.68
[5]; borate buffer pH 10.0, 25° C., 24 hours equilibration
  solubility: 2 µg/mL (≈ 4.51 µM)
[5]; borate buffer pH 10.0
  final pH of the sample (in parentheses): 8.58
[5]; phosphate buffer pH 6.8, 25° C., 24 hours equilibration
  solubility: 1 µg/mL (≈ 2.26 µM)
[5]; phosphate buffer pH 6.8
  final pH of the sample (in parentheses): 6.65
[5]; simulated gastric fluid, thermodynamic from solid, 0.01N HCl pH 2.0, 25° C., 24 hours equilibration
  solubility at 24 h: 17 µg/mL (≈ 38.3 µM)
[5]; water, 25° C., 24 hours equilibration
  solubility: 9 µg/mL (≈ 20.3 µM)
[5]; water
  final pH of the sample (in parentheses): 8.18
[6]; [8]
  form change in bulk: form changes were noticed
[6]; 75% RH at both temperatures (50° C. and 80° C.), one week
  form obtained upon exposure to 75% RH humidity: a dihydrate was obtained
[6]; [9]
  Bulk (XRPD): no change
[6]; 1 week 50° C./75% r.h.
  Bulk (XRPD): change
[6]; [10]
  Bulk (XRPD): change
[6]; under 50° C./75% RH
  form observed: mixture of the free form hydrate and anhydrous modification
[7]; listed as Compound I free form
  form after storage at 92% RH: changes into a dihydrate
[7]; listed as free form hydrate
  form after storage at 92% RH: dihydrate
